Source: the supplement of paper PMC10307832

Legend:
Assay in all cases: relative viability (nuclei count vs DMSO), 5 days (fraction); higher = more cells survive
[1] = compound: CC(C)N(CCCNC(=O)Nc1ccc(C(C)(C)C)cc1)C[C@H]1O[C@@H](n2ccc3c(N)ncnc32)[C@H](O)[C@@H]1O + C[C@@H](Oc1cc(-c2cnn(C3CCNCC3)c2)cnc1N)c1c(Cl)ccc(F)c1Cl [Crizotinib] (partner 1 µM)
Outline: (§1)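 Lung cancer cell lines in 1536-well plates got either a single drug or a fixed anchor-drug dose together with five library-drug doses (not always all listed) in √10 steps, by pin tool, on the day after seeding. Nuclei were counted after 5 days, and relative viability is the treated-to-vehicle ratio of nuclei counts. Values are medians of duplicate plates.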

Shikonin + Pictilisib = compound: CC(C)=CC[C@@H](O)C1=CC(=O)c2c(O)ccc(O)c2C1=O [Shikonin] + CS(=O)(=O)N1CCN(Cc2cc3nc(-c4cccc5[nH]ncc45)nc(N4CCOCC4)c3s2)CC1 [Pictilisib] (partner 1 µM)
Outline: as §1

Shikonin + Decitabine = compound: CC(C)=CC[C@@H](O)C1=CC(=O)c2c(O)ccc(O)c2C1=O [Shikonin] + Nc1ncn([C@H]2C[C@H](O)[C@@H](CO)O2)c(=O)n1 [Decitabine] (partner 2 µM)
Outline: as §1

[2] = compound: CC(C)N(CCCNC(=O)Nc1ccc(C(C)(C)C)cc1)C[C@H]1O[C@@H](n2ccc3c(N)ncnc32)[C@H](O)[C@@H]1O + CC(=O)Nc1cccc(-n2c(=O)n(C3CC3)c(=O)c3c(Nc4ccc(I)cc4F)n(C)c(=O)c(C)c32)c1 [Trametinib] (partner 0.02 µM)
Outline: as §1

Question: What does the source list for UMC-11?
Answer: relative viability ([1]; first compound 0.08 µM): 0.579; relative viability ([1]; first compound 0.253 µM): 0.706; relative viability ([1]; first compound 0.8 µM): 0.723; relative viability ([1]; first compound 2.53 µM): 0.656; relative viability ([1]; first compound 8 µM): 0.636; relative viability (Shikonin + Pictilisib; first compound 0.01 µM): 0.736; relative viability (Shikonin + Pictilisib; first compound 0.1 µM): 0.999; relative viability (Shikonin + Pictilisib; first compound 0.3162 µM): 0.76; relative viability (Shikonin + Pictilisib; first compound 1 µM): 0.97; relative viability (Shikonin + Decitabine; first compound 0.01 µM): 0.576; relative viability (Shikonin + Decitabine; first compound 0.1 µM): 0.614; relative viability (Shikonin + Decitabine; first compound 0.3162 µM): 0.665; relative viability (Shikonin + Decitabine; first compound 1 µM): 0.74; relative viability ([2]; first compound 0.08 µM): 0.691; relative viability ([2]; first compound 0.253 µM): 0.541; relative viability ([2]; first compound 0.8 µM): 0.588; relative viability ([2]; first compound 2.53 µM): 0.789; relative viability ([2]; first compound 8 µM): 0.796
